Key:
MMP-3 = conditions: MIA osteoarthritis SD rats, oral once daily 3 weeks
[1] = system: MIA-induced osteoarthritis rat model (tissues of liver and stomach); experiment: Histopathology of stomach and liver (H&E); type: in vivo, Sprague Dawley rats; conditions: G5 tramadol HCl 30 mg/kg; for gastric tissue analysis / gastric irritation, summary in words / epithelial detachment of cardiac gland (stomach histopathology): G4 polmacoxib 0.3 mg/kg; for gastric tissue analysis / gastric irritation, summary in words: co-administration groups G6 and G7 (both doses); for epithelial detachment of cardiac gland (stomach histopathology): mild level in G3 and G4, G3 acetaminophen 300+tramadol HCl 30 mg/kg
Description: Tissue sections were stained for histological evaluation.
1) Tissues of liver and stomach among isolated organs were sufficiently immobilized in 10% neutral buffered formalin solution, followed by general tissue treatment procedures such as trimming, dehydration and paraffin embedding to prepare tissue sections and cut them to about 4 μm. Thereafter, they were stained with Hematoxylin & Eosin (H&E) and examined microscopically.

[2] = system: MIA-induced osteoarthritis rat model (mechanical allodynia); experiment: Analgesic efficacy: paw withdrawal threshold (Von Frey, dynamic plantar aesthesiometer) in MIA-induced osteoarthritis rats; type: in vivo, Sprague Dawley rats; conditions: G3 acetaminophen 300 mg/kg+tramadol HCl 30 mg/kg, G4 polmacoxib 0.3 mg/kg, G5 tramadol HCl 30 mg/kg
Procedure: To evaluate analgesic efficacy, paw withdrawal threshold (PWT, g) was measured using a dynamic planter aesthesiometer (Ugo Basile S.R.L, Italy).
Von Frey filament used in this experiment has a constant pressure during bending, thereby imparting a constant stimulation. At this time, physical allodynia appears as an avoidance response, thereby enabling quantification of the pain index.
1) The pain suppression effect was measured by imparting physical stimulation with Von Frey filament using Dynamic plantar aesthesiometer (UGO BASILE 37450, Italy).
2) Rats were placed individually in each acrylic cage, allowing the rats to stay for 15 minutes to habituate to the new environment.
3) After habituation, the aesthesiometer was set to 0 ˜ 50 g and 0 ˜ 20 s. The measurement of allodynia by stimulation of the stimulator is performed by stimulating the bottom part of the affected foot, increasing the force incrementally (0-50 g), and measuring the hind paw withdraw threshold (force at the moment when the test body avoided the stimulator:gram) in triplicate at 5 min intervals.
4) The paw withdrawal threshold (PWT) was measured in duplicate at a fixed time within 2 weeks (day 10) and within 3 weeks (day 17) after administration of the test substance.

[3] = system: MIA-induced osteoarthritis rat model (knee joint); experiment: Histological evaluation of knee joint (H&E, safranin O-fast green, modified Mankin score); type: in vivo, Sprague Dawley rats; conditions: compared to positive control group G3; G5 tramadol HCl 30 mg/kg, co-administration groups G6 and G7 (both doses)
Procedure: 2) The collected knee joint tissues were immobilized in 10% formalin for 24 hours, and decalcificated for 72 hours while exchanging the solution with 10% formic acid at a 24-hour time interval prior to tissue treatment. The sagittal section of the knee joint was prepared through a coronal section so that the medial and lateral condyle articular surface of femur and tibia were well identified.
3) Subsequently, after a general tissue treatment procedure such as dehydration, clearing and penetration, paraffin embedding was performed and a 5 μm thin slice of knee joint was prepared with a rotary microtome. It was subject to deparaffinization and hydration, followed by Hematoxylin & Eosin (H&E) staining.
4) For safranin-O fast green (SOFG) staining, after deparaffinization and hydration, the thin slice of knee joint was reacted in Weigert's iron hematoxylin solution (HT110232, Sigma, St Louis, USA) for 10 minutes and washed with water, and then stained in 0.02% fast green (FCF) solution (F7258, Sigma, St Louis, USA) for 5 minutes. Subsequently, it was reacted in 1% acetic acid solution and then stained with 0.1% safranin O solution (S2255, Sigma, St Louis). The slide stained with safranin O-fast green was washed for 5 minutes to have clear color of nucleus. After dehydration and clarification, it was sealed. […]

[4] = Body weight change and clinical observation in MIA-induced osteoarthritis rat model; conditions: MIA osteoarthritis SD rats, oral once daily 3 weeks; G3 acetaminophen 300 mg/kg+tramadol HCl 30 mg/kg, G4 polmacoxib 0.3 mg/kg, G5 tramadol HCl 30 mg/kg
Procedure: In order to evaluate therapeutic effect of osteoarthritis, an animal model of osteoarthritis was prepared in Sprague Dawley rats (n=10 per group).
1) Monosodium iodoacetate (MIA, I2512, Sigma, Poole, UK) was dissolved in 0.9% sterile saline for injection at a concentration of 60 mg/ml and prepared on the day of the experiment (day 0).
2) After group separation, animals (Sprague Dawley rats) were placed in an anesthesia chamber (Matrix, US/VME-2) and anesthetized using diethyl ether. Thereafter, subjects in the induced group (G2 to G9) were injected once with 50 μl of MIA per subject (MIA 3 mg/head) into a left knee joint space via a patellar tendon using an insulin syringe (BD™ insulin syringe with Ultra-Fine™ Short Needle, 31 gauge). The number of animals in each group was 10, and the negative control group (G1) was injected once with 50 μl of saline at the same position in the left knee joint.
Group separation was performed only on animals judged to have no quarantine abnormalities during acclimation period, followed by MIA administration. On the 6th day after MIA administration, the weight bearing of hind leg for a total of 100 subjects administered with MIA was measured and the affected subjects with high weight bearing of left hind leg were sequentially excluded to select 70 subjects. […]

[5] = system: MIA-induced osteoarthritis rat model (stomach, liver); experiment: Gross necropsy observation after completion of the experiment; conditions: n=10 per group, G5 tramadol HCl 30 mg/kg, oral once daily 3 weeks
[6] = 10-day evaluation, induced group G2 14.7 g
[7] = second evaluation (time not given; day 17 per method)

| Structure (SMILES) | level of MMP-3 in serum obtained after 3 weeks of treatment, in words (MMP-3) | gastric tissue analysis / gastric irritation, summary in words [1] | epithelial detachment of cardiac gland (stomach histopathology) ([1]; n=10 per group) [cases] | paw withdrawal threshold (PWT) [2, 6] [g] | paw withdrawal threshold (PWT) [2, 7] [g] | cluster formation of chondrocytes, in words [3] | erosion of cardiac gland and fundic gland (stomach histopathology) ([1]; n=10 per group, oral once daily 3 weeks) [cases] | weight gain at end of test compared to average weight at beginning [4] [%] | gastric wall thickening at gross necropsy ([5]; G3 acetaminophen 300 mg/kg+tramadol HCl 30 mg/kg) [cases] | gastric mucosal petechial hemorrhage at gross necropsy ([5]; G3 acetaminophen 300+tramadol HCl 30 mg/kg, G7 polmacoxib 0.3+tramadol HCl 30 mg/kg) [cases] | nodules on the surface of liver at gross necropsy [5] [case] |
| --- | --- | --- | --- | --- | --- | --- | --- | --- | --- | --- | --- |
| CC1(C)OC(c2ccc(S(N)(=O)=O)cc2)=C(c2cccc(F)c2)C1=O [polmacoxib, 5-(4-(aminosulfonyl)-phenyl)-2,2-dimethyl-4-(3-fluorophenyl)-3(2H)-furanone] | lower MMP-3 levels compared to the groups G3 and G5 | epithelial detachment of pyloric | 4 | 24.2 | 24.2 | – | – | – | – | – | – |
| COc1cccc(C2(O)CCCCC2CN(C)C)c1.Cl (stereo not drawn) [tramadol hydrochloride, 2-(dimethylaminomethyl)-1-(3-methoxyphenyl)] | – | epithelial detachments of cardia and pyloric and erosion | 2 | 26.3 | 26.3 | improvement effects compared to the positive control group G3 | 4 | 18.5 | 3 | 3 | 1 |

— patent publication US20230157991A1, “PHARMACEUTICAL COMPOSITION FOR TREATING ACUTE AND CHRONIC PAIN, CONTAINING POLMACOXIB AND TRAMADOL” (CrystalGenomics, Inc., priority 2017, published 2023)
